# Tests used:
# [1] = test system: A. niger; assay: Agar plate test: diameter of the A. niger growth ring after contact with biocide matrix; assay type: cell-based; conditions: for A. niger diameters (cm), 3 days: day 3; for A. niger diameters (cm), 7 days: day 7; for A. niger diameters (cm), 14 days: day 14; for A. niger diameters (cm), 21 days: day 21; for A. niger diameters (cm), 28 days: day 28
# Protocol: Samples of the prepared materials were dispersed in hot (˜45° C.) agar, under stirring. […] Pure DBNPA and commercial biocide (OTW) were used as standards. All the results were duplicated to assure accuracy.
# [2] = room temperature; cited from earlier work
# [3] = 300 ppm in agar (column DBNPA in agar, ppm), inoculum plug ID 1 cm
# [4] = 300 ppm in agar, inoculum plug ID 1 cm
SMILES,concentration at which activity is demonstrated [1] [ppm],time over which activity is lost ([1]; 300 ppm DBNPA) [days],"A. niger diameters (cm), 3 days [1, 3] [cm]","A. niger diameters (cm), 7 days [1, 4] [cm]","A. niger diameters (cm), 14 days [1, 4] [cm]","A. niger diameters (cm), 21 days [1, 4] [cm]","A. niger diameters (cm), 28 days [1, 4] [cm]","A. niger diameters (cm), 3 days ([1]; 1000 ppm DBNPA in agar) [cm]","A. niger diameters (cm), 7 days ([1]; 1000 ppm DBNPA in agar) [cm]","A. niger diameters (cm), 14 days ([1]; 1000 ppm DBNPA in agar) [cm]","A. niger diameters (cm), 21 days ([1]; 1000 ppm DBNPA in agar) [cm]","A. niger diameters (cm), 28 days ([1]; 1000 ppm DBNPA in agar) [cm]",time to loss of activity by decomposition in aqueous media [2] [days]
"N#CC(Br)(Br)C(N)=O [DBNPA, 2,2-dibromo-3-nitrilopropionamide]",> 1000,3,3.7,10,10,10,10,1,1,1,1,1,2 to 3
"CCCCCCCCn1sccc1=O [OTW neat, N-octylisothiazolinone]",,,1,1,1,1,1,,,,,,

# From patent US20120207835A1, “BROAD-SPECTRUM BIOCIDE COMPOSITIONS AND A METHOD FOR THEIR PREPARATION” (BROMINE COMPOUNDS LTD., priority 2009, published 2012)
